Test results from patent US10508088B2, “Methods using HDAC11 inhibitors” (FORMA Therapeutics, Inc., priority 2016, dated 2019).

Key:
[1] = tested on: Sox2, Gli1, Yap1 mRNA in H1650 cells; assay: QRT-PCR assay for stem cell transcription factors; format: cell-based; conditions: H1650, 72 hours
Procedure: (§1) Given the effects of HDAC11 inhibition on stem-like side population cells, the effects on the expression of stem cell transcription factors was determined using QRT-PCR. A549 or H1650 cells were plated in 60 mm cell culture dishes (120,000 cells). The next day, HDAC11 inhibitors were added at various concentrations and incubated for 72 hours. For the siRNA experiments, A549 cells were plated in 60 mm cell culture dishes (120,000 cells per dish). The siRNAs (Santa Cruz Biotechnologies sc-106896 or ThermoFisher Scientific Cat#4392420) were transfected at a concentration of 100 and 150 pmoles into cells using Oligofectamine reagent (Invitrogen) as per manufacturer's protocol. A non-targeting siRNA (Ambion AM4635) was used as a control for all the transfection experiments. The cells were harvested after 72 hours post transfection. At the end of the treatments, cells were scraped, lysed and total RNA was isolated by RNeasy miniprep kit from Qiagen following the manufacturer's protocol (RNeasy mini kit Cat No. 74104). 1 μg of RNA was converted into cDNA using iScript cDNA synthesis kit (BioRad) in a 20 μl total reaction volume. Levels of mRNA were further analyzed using quantitative real time-PCR (qRT-PCR) that was performed in CFX96 Real time system using BioRad iQ SYBR Green supermix. The reaction was set with 5 μl of SYBR Green, 1 μl of 1 μM Forward primer, 1 μl of 1 μM Reverse primer, 0.5 μl of cDNA and 4.5 μl of water in a total 12 μl reaction. Data was normalized using GAPDH as an internal control and fold change was calculated by 2^−Delta-DeltaCt method. First the Delta-Ct was calculated (Delta-Ct=Ct Gene−Ct GAPDH). Next Delta-Delta-Ct was calculated (Delta-Delta-Ct=Delta-Ct treatment−Delta-Ct control). Finally fold change was calculated by 2^−Delta-DeltaCt.

[2] = tested on: Sox2, Gli1, Yap1 mRNA in A549 cells; assay: QRT-PCR assay for stem cell transcription factors; format: cell-based; conditions: A549, 72 hours
Procedure: as §1

[3] = tested on: primary CAFs from human lung cancer; assay: Co-culture assay with cancer cells and cancer associated fibroblasts; format: cell-based; conditions: 1:1 co-culture with H1650
Procedure: The effects of selective HDAC11 inhibition on cancer cells and cancer associated fibroblasts (CAFs) were determined in a co-culture assay. The cells were first trypsinized and collected in serum containing medium and were further incubated in same media at 37° C. for 15-20 min for recovery. The cells were resuspended in serum free media at 1×10^6 cells/ml density and stained with 10 uM of cytotracker green (Cancer associated fibroblasts) or cytotracker red dye (H1650 cells) (Life Technologies Inc) at 37° C. for 90 min. The stained cells were washed twice with serum free medium to remove excess dye at 1500 rpm for 5 min. The cytotracker green stained CAFs were mixed with cytotracker red stained H1650 cells in 1:1 ratio and grown in 96-well tissue culture plate overnight. The HDAC11 inhibitors were then added to the mixed adhered cells (CAFs+H1650) at appropriate concentrations. The images were taken on Day 0 and after every 24 hours using EVOS FL microscope system and EVOS software (Life Technologies Inc).

A549 cells = assay: Cell proliferation assay with combination treatment (MTT); format: cell-based; conditions: A549, combination with GDC-0449 (Vismodegib) or BMS-833923, 96 hours
Procedure: (§2) Selective HDAC11 inhibitors may be useful in combination with other targeted agents, including Jak2 inhibitors and Smoothened inhibitors. The effect of combination with the Smoothened inhibitors GDC-0449 (Vismodegib) and BMS-833923 was tested in lung cancer cell lines. A549 and NCI-H2170 cells were obtained from the ATCC. H2170 is a squamous carcinoma cell line. Cell viability was assessed using MTT reagent (Thiazolyl Blue Tetrazolium Bromide) (Sigma-Aldrich). The cells were grown in 96-well plates at a density of 3000-5000 cells/well in triplicates. The HDAC11 inhibitors were added to the adherent cells at different concentrations and treatment was carried out for 96 hours. After treatments, the cells were incubated with the 1 mg/mL MTT reagent at 37° C. for 1 hour. The reaction was terminated with DMSO that solubilizes the formazan product formed. Absorbance at 590 nm was recorded in a plate reader.

NCI-H2170 cells = assay: as above; format: cell-based; conditions: H2170, combination with GDC-0449 (Vismodegib) or BMS-833923, 96 hours
Procedure: as §2

SET-2 cells = assay: Cell proliferation assay (CCK8); format: cell-based; conditions: Ruxolitinib-resistant SET-2
Procedure: (§3) This example describes inhibition of in vitro cell proliferation with exemplary HDAC11 inhibitors. The effects of selective HDAC11 inhibitors on cell proliferation were measured in cell lines containing the MPN-associated mutations MPL W515L (Ba/F3 MPL W515L) and JAK2 V617F (Ba/F3 JAK2 V617F, HEL 92.1.7, SET-2). HEL 92.1.7 and SET-2 cells were purchased from the ATCC and DSMZ, respectively. Ba/F3 cells overexpressing either MPLW515L or JAK2V617F, which were cytokine independent, were generated by transforming Ba/F3 cells with retroviruses overexpressing either MPL W515L or JAK2V617F. For survival assays, cells were seeded in 96-well plates at the density of 0.1 million/ml with addition of indicated compounds and incubated at 37° C. for 48 h. CCK8 solution (Dojindo, Rockville, Md.) was added and absorbance at 450 nm was measured after 3 hours of incubation. Readings were normalized to dimethylsulfoxide (DMSO)-treated wells.

HEL 92.1.7 cells = assay: Cell proliferation assay (CCK8); format: cell-based; conditions: HEL 92.1.7, 48 h
Procedure: as §3

[4] = tested on: myeloid cells from MPN patients; assay: Colony formation assay from MPN patient samples; format: cell-based, human; conditions: MPN patient samples (ET; PV Ruxolitinib resistant), scored 12 to 14 days
Procedure: (§4) To determine the effects of selective HDAC11 inhibition on MPN patient samples, the effects of HDAC11 inhibitors were evaluated in a colony formation assay with erythroid or myeloid cells from MPN patients. Peripheral blood was obtained from MPN patients consented through the Moffitt Cancer Center Total Cancer Care protocol (MCC 14690). Blood was treated with HetaSep™ (STEMCELL Technologies, Inc.) to remove the majority of red blood cells. Peripheral blood mononuclear cells (PBMCs) were isolated by ficoll separation. PBMCs (1-4×105) were then plated in 1 mL of methylcellulose medium containing rhSCF, rhIL-3, and granulocyte-macrophage colony-stimulating factor (rhGM-CSF) (MethoCult™ #H4534; STEMCELL Technologies, Inc.). All drug treated samples contained 0.1% DMSO as the final concentration. Cells were incubated at 37° C. and 5% CO2 in a humidified incubator. Colonies were scored 12 to 14 days after plating.

[5] = tested on: erythroid cells from MPN patients; assay: Colony formation assay from MPN patient samples; format: cell-based, human; conditions: MPN patient samples (ET; PV Ruxolitinib resistant), scored 12 to 14 days
Procedure: as §4

Compound | expression of Gli1 and Yap1 [1] | expression of Sox2 [1] | expression of Gli1 and Yap1 [2] | expression of Sox2 [2] | effects on CAFs [3] | cell viability, combination with the Smoothened inhibitors (A549 cells) | cell viability, combination with the Smoothened inhibitors (NCI-H2170 cells) | growth of SET-2 cell line generated to be Ruxolitinib-resistant (SET-2 cells) | growth of the HEL 92.1.7 cell line (HEL 92.1.7 cells) | growth of colonies from myeloid cells [4] | growth of colonies from erythroid cells [5]
O=C(NO)c1cccc2c1C[C@]1(CCN(Cc3ccc(Cl)c(C(F)(F)F)c3)C1=O)C2 [HDTK054, (S)-1′-(4-chloro-3-(trifluoromethyl)benzyl)-N-hydroxy-2′-oxo-1,3-dihydrospiro[indene-2,3′-pyrrolidine]-4-carboxamide] | decreased expression | decreased expression | decreased expression | decreased expression | minimal effects | decreased cell viability | decreased cell viability | – | – | – | –
O=C(NO)c1cccc(Nc2nc3cc(Cl)c(Cl)cc3o2)c1 [HDTK010, 3-((5,6-dichlorobenzo[d]oxazol-2-yl)amino)-N-hydroxybenzamide] | decreased expression | decreased expression | decreased expression | decreased expression | – | decreased cell viability | decreased cell viability | inhibited the growth | inhibited the growth | reduced the growth of colonies | reduced the growth of colonies
